Drawing on PubChem BioAssay (NCI), this text covers TGI for 16 compounds.

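The compound was tested at five concentrations on cells cultured in 96-well plates, with a 48-hour exposure period. TGI: concentration producing complete growth inhibition.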

Among the test systems are A549 NSCLC; COLO 205 colon; HCC-2998 colon; HL-60(TB) leukemia; KM12 colon; NCI-H226 lung; RPMI-8226 leukemia; MDA-MB-435; NCI-H522 lung; UACC-62 melanoma.
Common to all, as to test: DTP human tumour cell line panel, 48 h

Turning to `Cc1ccc(S(=O)(=O)C(C#N)c2nc3ccccc3nc2-n2cccn2)cc1` (stereo unspecified), the TGI in the test on A549 NSCLC, with COLO 205 colon, in the test with HCC-2998 colon, in the test on HL-60(TB) leukemia, with KM12 colon and in the test with NCI-H226 lung was above 100 µM throughout. Besides, the TGI with RPMI-8226 leukemia is above 100 µM.

Turning to `O=C(C[C@@H]1NCCC[C@H]1O)Cn1cnc2cc(Br)c(Cl)cc2c1=O`, the TGI with A549 NSCLC was 0.143 µM; in the test on COLO 205 colon, 0.0391 µM; in the test on HCC-2998 colon, 0.352 µM; in the test with KM12 colon, 0.101 µM; with MDA-MB-435, 0.076 µM; with NCI-H226 lung, 0.0473 µM. Besides, the TGI with NCI-H522 lung stood at 0.169 µM; in the test on RPMI-8226 leukemia it was 0.128 µM.

For the compound `O=C1c2cc3c(cc2CC12Cc1cc4c(cc1C2)CCC4)CCC3`, the TGI with A549 NSCLC, in the test with COLO 205 colon, in the test with HCC-2998 colon, with HL-60(TB) leukemia, in the test with KM12 colon and in the test with MDA-MB-435 was above 100 µM each time. Also, the TGI in the test with NCI-H522 lung and in the test with RPMI-8226 leukemia was above 100 µM in each case.

For `O=C1/C(=C/c2ccccc2S)N=C(c2ccccc2)N1c1ccc2c(c1)Sc1cc(N3C(=O)/C(=C/c4ccccc4S)N=C3c3ccccc3)ccc1N2`, the TGI in the test on A549 NSCLC is 35 µM; in the test on COLO 205 colon it was above 100 µM; in the test on HCC-2998 colon, 37.1 µM; in the test with KM12 colon, above 100 µM; in the test with MDA-MB-435 it was 48.9 µM; in the test on RPMI-8226 leukemia it was 46.8 µM. In the test on UACC-62 melanoma, this compound showed a TGI of 42.7 µM.

Turning to `CCOC(=O)CCC(NC(=O)OCc1ccccc1)C(=O)NNC(=O)OC(C)(C)C` (stereo unspecified), the TGI with A549 NSCLC, in the test with COLO 205 colon, with HCC-2998 colon, in the test with HL-60(TB) leukemia, in the test with KM12 colon and with MDA-MB-435 was above 100 µM throughout. For the same compound, the TGI in the test on NCI-H522 lung, in the test with RPMI-8226 leukemia and in the test on UACC-62 melanoma was above 100 µM in each case.

In the case of `COc1cc(C2C(Cl)C(=O)N2c2ccc(Br)cc2)cc(I)c1O` (stereo unspecified), the TGI with A549 NSCLC, in the test on COLO 205 colon, in the test on HL-60(TB) leukemia, in the test with KM12 colon, in the test with MDA-MB-435 and with NCI-H522 lung was above 100 µM each time. Further, the TGI in the test on RPMI-8226 leukemia and in the test on UACC-62 melanoma was above 100 µM each time.

Consider `O=C1CCC2(CC1)Cc1ccccc1C2O` (stereo unspecified), for which the TGI in the test on A549 NSCLC, in the test on COLO 205 colon, in the test with HCC-2998 colon, in the test on HL-60(TB) leukemia, with KM12 colon and in the test on NCI-H226 lung was above 100 µM in each case. Also, the TGI with NCI-H522 lung and in the test with UACC-62 melanoma was above 100 µM throughout.

As to `CC(=O)Oc1ccc2cc(Oc3ccc(Cl)cc3)c(=O)oc2c1`, the TGI was 94 µM in the test with A549 NSCLC; above 100 µM with HCC-2998 colon; above 100 µM in the test on HL-60(TB) leukemia; above 100 µM in the test with KM12 colon; above 100 µM in the test on NCI-H226 lung; 89.6 µM with NCI-H522 lung. The compound further had a TGI in the test with RPMI-8226 leukemia above 100 µM.

Consider `Cc1ccc2ccccc2c1CC1S(=O)(=O)OCCOS1(=O)=O`, for which the TGI is 29.6 µM in the test on A549 NSCLC; 6.1 µM in the test with COLO 205 colon; 15.8 µM with HCC-2998 colon; 5.38 µM in the test with HL-60(TB) leukemia; 29.3 µM with KM12 colon; 22 µM in the test on MDA-MB-435. The compound also had a TGI in the test with RPMI-8226 leukemia of 32.3 µM.

As to `c1ccc2c3c(ccc2c1)CSCc1ccc2ccccc2c1-3`, the TGI in the test with A549 NSCLC, in the test on COLO 205 colon, in the test on HCC-2998 colon, with KM12 colon, in the test with MDA-MB-435 and with NCI-H522 lung was above 100 µM each time. Moreover, the TGI in the test on RPMI-8226 leukemia and in the test on UACC-62 melanoma was above 100 µM in each case.

As to `N#Cc1c(N)c(-c2ccc(Cl)cc2)c(F)c2ccccc12`, the TGI with A549 NSCLC, in the test on COLO 205 colon, in the test with HCC-2998 colon, in the test on KM12 colon, in the test with MDA-MB-435 and in the test with NCI-H226 lung was above 100 µM in each case. For the same compound, the TGI in the test with NCI-H522 lung, with RPMI-8226 leukemia and in the test on UACC-62 melanoma was above 100 µM in each case.

`O=C(Cn1c2ccc(Br)cc2c2nc3ccccc3nc21)NC1CCCCC1`: the TGI in the test with A549 NSCLC, in the test with COLO 205 colon, in the test with HCC-2998 colon, in the test with KM12 colon, with MDA-MB-435 and in the test with NCI-H226 lung was above 100 µM each time. For the same compound, the TGI with NCI-H522 lung, with RPMI-8226 leukemia and in the test with UACC-62 melanoma was above 100 µM in each case.

Regarding `CCCCCCCCCCCCOC1C(COCCN2CCCC2)OC2OC(C)(C)OC21` (stereo unspecified), the TGI in the test on A549 NSCLC was determined as 16.1 µM; with COLO 205 colon, 3.22 µM; with MDA-MB-435, 3.14 µM; with NCI-H226 lung, 7.62 µM; with NCI-H522 lung, 2.53 µM; with RPMI-8226 leukemia, 12.1 µM. The compound also showed a TGI in the test with UACC-62 melanoma of 3.36 µM.

`CC(C)(CN1CCCCC1)C(=O)CC(SCCS(=O)(=O)O)c1ccc(Br)cc1` (stereo unspecified): the TGI in the test on A549 NSCLC stood at 4.78 µM; in the test with COLO 205 colon it was 2.82 µM; with HCC-2998 colon, 4.55 µM; with KM12 colon it was 5.36 µM; in the test on NCI-H226 lung, 8.75 µM; in the test with NCI-H522 lung, 2.9 µM. The TGI was 4.66 µM in the test on RPMI-8226 leukemia and 3.69 µM in the test with UACC-62 melanoma.

`NC(N)=N/N=C(\c1ccc(Cl)cc1)C1CC1`: the TGI is above 100 µM with A549 NSCLC; 31 µM with COLO 205 colon; 19.4 µM in the test on HCC-2998 colon; 35.8 µM in the test with KM12 colon; 34.7 µM in the test on MDA-MB-435; 33.2 µM with NCI-H226 lung. In addition, the TGI was 31.3 µM in the test with NCI-H522 lung, 37.9 µM with RPMI-8226 leukemia and 29.3 µM in the test with UACC-62 melanoma.

Take `CC(=O)O[C@]12CCCCCCC1C1(O)C(O)CCC[C@H]12` (stereo partly specified): the TGI in the test on A549 NSCLC, in the test with COLO 205 colon, in the test on KM12 colon, in the test on NCI-H226 lung, in the test with NCI-H522 lung and with RPMI-8226 leukemia was above 100 µM throughout. In addition, the TGI in the test with UACC-62 melanoma is above 100 µM.
